Experimental data: US12290596B2, “Compositions and methods for the treatment of opioid overdose” (priority 2021, dated 2025)

Experiment: Three-treatment crossover pharmacokinetics of IN nalmefene, three dosing regimens (Example 13)
Settings: for half-life / AUC(0-t) / AUC(0-inf) / Cmax / Vd/F / concentration at 3 h / concentration at 4 h / concentration at 6 h / concentration at 8 h / concentration at 12 h / concentration at 18 h / concentration at 24 h / concentration at 48 h: human, plasma, other: intranasal (IN spray); for AUC(0-t) / AUC(0-inf) / Cmax / Vd/F: mean; for AUC(0-inf): AUCinf; for Vd/F: Vz/F; for concentration at 3 h / concentration at 4 h / concentration at 6 h / concentration at 8 h / concentration at 12 h / concentration at 18 h / concentration at 24 h / concentration at 48 h: T1 (3 mg IN, one spray in one nostril)
[1] = Treatment A (T1) 3 mg in one nostril
[2] = Treatment B (T2) 3 mg in each nostril (6 mg)
[3] = Treatment C (T3) 6 mg in one nostril
[4] = 3 mg, Treatment A (T1) 3 mg in one nostril
[5] = 6 mg, Treatment B (T2) 3 mg in each nostril (6 mg)
[6] = 6 mg, Treatment C (T3) 6 mg in one nostril

SMILES: C=C1CC[C@@]2(O)[C@H]3Cc4ccc(O)c5c4[C@@]2(CCN3CC2CC2)[C@H]1O5 [Nalmefene, 17-cyclopropylmethyl-4,5α-epoxy-6-methylenemorphinan-3,14-diol]
- Dose-normalized Cmax lower after Treatment C (T3) compared to Treatment A (T1) (ANOVA): approximately 19%
- AUC0-2.5 min/D, mean [1]: 0.00276 ng·h/mL/mg
- AUC0-5 min/D, mean [1]: 0.0206 ng·h/mL/mg
- AUC0-7.5 min/D, mean [1]: 0.0728 ng·h/mL/mg
- AUC0-10 min/D, mean [1]: 0.160 ng·h/mL/mg
- AUC0-15 min/D, mean [1]: 0.393 ng·h/mL/mg
- AUC0-20 min/D, mean [1]: 0.639 ng·h/mL/mg
- AUC0-30 min/D, mean [1]: 1.06 ng·h/mL/mg
- AUCextrap, mean [1]: 4.22%
- CL/F, mean [1]: 66.9 L/h
- Cmax/D, mean [1]: 3.59 ng/mL/mg
- AUC0-2.5 min/D, mean [2]: 0.0072 ng·h/mL/mg
- AUC0-5 min/D, mean [2]: 0.0369 ng·h/mL/mg
- AUC0-7.5 min/D, mean [2]: 0.106 ng·h/mL/mg
- AUC0-10 min/D, mean [2]: 0.202 ng·h/mL/mg
- AUC0-15 min/D, mean [2]: 0.445 ng·h/mL/mg
- AUC0-20 min/D, mean [2]: 0.691 ng·h/mL/mg
- AUC0-30 min/D, mean [2]: 1.08 ng·h/mL/mg
- AUCextrap, mean [2]: 3.61%
- AUClast/D, mean [2]: 14.4 ng·h/mL/mg
- CL/F, mean [2]: 69.2 L/h
- Cmax/D, mean [2]: 3.70 ng/mL/mg
- AUC0-2.5 min/D, mean [3]: 0.00455 ng·h/mL/mg
- AUC0-5 min/D, mean [3]: 0.0244 ng·h/mL/mg
- AUC0-7.5 min/D, mean [3]: 0.0803 ng·h/mL/mg
- AUC0-10 min/D, mean [3]: 0.165 ng·h/mL/mg
- AUC0-15 min/D, mean [3]: 0.374 ng·h/mL/mg
- AUC0-20 min/D, mean [3]: 0.588 ng·h/mL/mg
- AUC0-30 min/D, mean [3]: 0.931 ng·h/mL/mg
- AUCextrap, mean [3]: 4.18%
- AUClast/D, mean [3]: 13.7 ng·h/mL/mg
- CL/F, mean [3]: 73.3 L/h
- Cmax/D, mean [3]: 3.15 ng/mL/mg
- half-life (3 mg): 11.4 h
- AUC(0-t) (3 mg, AUC0-5 min, Treatment A (T1) 3 mg in one nostril): 0.0618 ng·h/mL
- AUC(0-t) (3 mg, AUC0-10 min, Treatment A (T1) 3 mg in one nostril): 0.48 ng·h/mL
- AUC(0-t) (3 mg, AUC0-15 min, Treatment A (T1) 3 mg in one nostril): 1.18 ng·h/mL
- AUC(0-t) (3 mg, AUC0-20 min, Treatment A (T1) 3 mg in one nostril): 1.92 ng·h/mL
- AUC(0-t) (3 mg, AUC0-30 min, Treatment A (T1) 3 mg in one nostril): 3.19 ng·h/mL
- AUC(0-t) (3 mg, AUC0-[…], Treatment A (T1) 3 mg in one nostril): 0.219 ng·h/mL
- AUC(0-inf) [4]: 46.8 ng·h/mL
- AUC(0-t) (3 mg, AUClast, Treatment A (T1) 3 mg in one nostril): 44.9 ng·h/mL
- Cmax [4]: 10.8 ng/mL
- Vd/F [4]: 1090 L
- concentration at 3 h (3 mg, Max): 6.01 ng/mL
- concentration at 4 h (3 mg, Max): 4.86 ng/mL
- concentration at 6 h (3 mg, Max): 3.01 ng/mL
- concentration at 8 h (3 mg, Max): 2.19 ng/mL
- concentration at 12 h (3 mg, Max): 1.51 ng/mL
- concentration at 18 h (3 mg, Max): 0.851 ng/mL
- concentration at 24 h (3 mg, Max): 0.785 ng/mL
- concentration at 48 h (3 mg, Max): 0.184 ng/mL
- concentration at 3 h (3 mg, Median): 3.51 ng/mL
- concentration at 4 h (3 mg, Median): 2.78 ng/mL
- concentration at 6 h (3 mg, Median): 2.07 ng/mL
- concentration at 8 h (3 mg, Median): 1.34 ng/mL
- concentration at 12 h (3 mg, Median): 0.985 ng/mL
- concentration at 18 h (3 mg, Median): 0.581 ng/mL
- concentration at 24 h (3 mg, Median): 0.37 ng/mL
- concentration at 48 h (3 mg, Median): 0.088 ng/mL
- concentration at 12 h (3 mg, Min): 0.727 ng/mL
- concentration at 18 h (3 mg, Min): 0.37 ng/mL
- concentration at 24 h (3 mg, Min): 0.261 ng/mL
- concentration at 48 h (3 mg, Min): 0 ng/mL
- half-life (6 mg): 11.3 h
- AUC(0-t) (6 mg, AUC0-5 min, Treatment B (T2) 3 mg in each nostril (6 mg)): 0.222 ng·h/mL
- AUC(0-t) (6 mg, AUC0-5 min, Treatment C (T3) 6 mg in one nostril): 0.146 ng·h/mL
- AUC(0-t) (6 mg, AUC0-10 min, Treatment B (T2) 3 mg in each nostril (6 mg)): 1.21 ng·h/mL
- AUC(0-t) (6 mg, AUC0-10 min, Treatment C (T3) 6 mg in one nostril): 0.988 ng·h/mL
- AUC(0-t) (6 mg, AUC0-15 min, Treatment B (T2) 3 mg in each nostril (6 mg)): 2.67 ng·h/mL
- AUC(0-t) (6 mg, AUC0-15 min, Treatment C (T3) 6 mg in one nostril): 2.24 ng·h/mL
- AUC(0-t) (6 mg, AUC0-20 min, Treatment B (T2) 3 mg in each nostril (6 mg)): 4.14 ng·h/mL
- AUC(0-t) (6 mg, AUC0-20 min, Treatment C (T3) 6 mg in one nostril): 3.53 ng·h/mL
- AUC(0-t) (6 mg, AUC0-30 min, Treatment B (T2) 3 mg in each nostril (6 mg)): 6.46 ng·h/mL
- AUC(0-t) (6 mg, AUC0-30 min, Treatment C (T3) 6 mg in one nostril): 5.58 ng·h/mL
- AUC(0-inf) [5]: 89.5 ng·h/mL
- AUC(0-inf) [6]: 85.7 ng·h/mL
- AUC(0-t) (6 mg, AUClast, Treatment B (T2) 3 mg in each nostril (6 mg)): 86.2 ng·h/mL
- AUC(0-t) (6 mg, AUClast, Treatment C (T3) 6 mg in one nostril): 82.1 ng·h/mL
- Cmax [5]: 22.2 ng/mL
- Vd/F [5]: 1120 L
- Vd/F [6]: 1190 L
